Experimental data as given in the supplement of paper PMC8967900.

Experiments:
Assay in all cases: selective drug sensitivity score (sDSS, relative to normal bone marrow) (sDSS (score)); higher = more potent and effective on the cell line relative to normal bone marrow cells
Conditions in all cases: 72 h
[1] = system: 380
[2] = system: 697
[3] = system: ALL-PO
[4] = system: CCRF-CEM
[5] = system: COG-LL-355h
[6] = system: COG-LL-394h
[7] = system: COG-LL-402h
[8] = system: HPB-ALL
[9] = system: KARPAS-45
[10] = system: MOLT-14
[11] = system: MOLT-16
[12] = system: NALM-16
[13] = system: P12-ICHIKAWA
[14] = system: P30-OHKUBO
[15] = system: RCH-ACV
[16] = system: RPMI-8402
[17] = system: SEM cells
[18] = system: SUP-B15
[19] = system: TANOUE
[20] = system: TMD5
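Also: ALL cell lines in 384-well plates, five doses spanning 10,000-fold, each plate scaled between vehicle and 100 µmol/L benzalkonium chloride controls, sDSS an adapted area-under-curve metric.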

| SMILES | selective drug sensitivity score [1] | selective drug sensitivity score [2] | selective drug sensitivity score [3] | selective drug sensitivity score [4] | selective drug sensitivity score [5] | selective drug sensitivity score [6] | selective drug sensitivity score [7] | selective drug sensitivity score [8] | selective drug sensitivity score [9] | selective drug sensitivity score [10] | selective drug sensitivity score [11] | selective drug sensitivity score [12] | selective drug sensitivity score [13] | selective drug sensitivity score [14] | selective drug sensitivity score [15] | selective drug sensitivity score [16] | selective drug sensitivity score [17] | selective drug sensitivity score [18] | selective drug sensitivity score [19] | selective drug sensitivity score [20] |
| --- | --- | --- | --- | --- | --- | --- | --- | --- | --- | --- | --- | --- | --- | --- | --- | --- | --- | --- | --- | --- |
| CC(C)C[C@H](NC(=O)CNC(=O)c1cc(Cl)ccc1Cl)B(O)O [Ixazomib] (top concentration 1000 nM) | 5.56 | 5.56 | 8.46 | 10.5 | 6.56 | 5.26 | 3.46 | 8.46 | 5.96 | 4.96 | 7.06 | 0.66 | 5.76 | 6.66 | 7.36 | 6.56 | 13.1 | 11.5 | -6.64 | 4.06 |
| CC(C)NC(=O)COc1cccc(-c2nc(Nc3ccc4[nH]ncc4c3)c3ccccc3n2)c1 [KD025] (top concentration 5000 nM) | -5.36 | -0.66 | 5.24 | -0.66 | -0.86 | -1.36 | -5.36 | -3.26 | -2.76 | -3.36 | 0.64 | -1.16 | -4.06 | 1.84 | -2.16 | -2.36 | -2.96 | 2.14 | -5.36 | -3.16 |
| Nc1cccc2c1CN(C1CCC(=O)NC1=O)C2=O (stereo not given) [Lenalidomide] (top concentration 100000 nM) | 1.62 | -2.28 | -2.28 | 0.92 | 2.82 | -2.28 | -2.28 | -2.28 | -2.28 | 0.12 | -0.88 | -0.38 | -2.28 | -2.28 | 4.42 | -2.08 | 3.82 | -2.28 | -2.28 | 5.02 |
| Sc1ncnc2nc[nH]c12 [Mercaptopurine] (top concentration 10000 nM) | 7.4 | 8 | 14.9 | 14.1 | 0.5 | 0.5 | 6.6 | 14.9 | 17.1 | 10.9 | 16.9 | 7.9 | 9.6 | 8.9 | 14.2 | 9.2 | 12.6 | 12.7 | 7.2 | 0 |
| Cc1ccc(C(=O)Nc2ccc(Oc3cc4cnn(C)c4cc3-c3cn[nH]c3)c(F)c2)c(=O)n1-c1ccc(F)cc1 [Merestinib] (top concentration 1000 nM) | -0.62 | 0.48 | 15.2 | -0.62 | -0.62 | -0.62 | -0.62 | -0.62 | -0.62 | -0.62 | -0.62 | 2.58 | -0.62 | 0.88 | 1.08 | -0.62 | 19.8 | -0.62 | -0.62 | -0.62 |
| CNC(=O)c1nn(C)c2c1C(C)(C)Cc1cnc(Nc3ccc(N4CCN(C)CC4)cc3)nc1-2 [Milciclib] (top concentration 10000 nM) | -0.06 | 12.5 | 9.94 | 2.04 | 5.44 | 1.74 | 12 | 4.44 | 5.04 | 7.04 | 6.44 | 3.34 | 2.34 | 4.94 | 14.3 | 5.54 | 10 | 8.14 | -3.76 | -1.16 |
| N#CCNC(=O)c1ccc(-c2ccnc(Nc3ccc(N4CCOCC4)cc3)n2)cc1 [Momelotinib] (top concentration 10000 nM) | -9.62 | 2.68 | 2.48 | -2.52 | -0.92 | -3.92 | -0.12 | -8.52 | 0.18 | -3.92 | 0.28 | -8.32 | -0.12 | 1.58 | 5.78 | -0.82 | 1.48 | 0.88 | -9.62 | -4.72 |
| Cc1ccc(C(=O)Nc2cccc(C(F)(F)F)c2)cc1Nc1nc(-c2cccnc2)nc2c1cnn2C [NVP-BHG712] (top concentration 10000 nM) | 1.28 | 3.78 | 2.48 | 3.38 | 4.48 | -2.32 | -2.32 | 0.18 | 3.48 | 2.28 | 3.68 | -2.32 | 3.08 | 5.98 | 7.78 | 5.08 | 2.48 | 7.98 | -2.32 | 7.28 |
| Cn1c(Nc2ccc(C(F)(F)F)cc2)nc2cc(Oc3ccnc(-c4ncc(C(F)(F)F)[nH]4)c3)ccc21 [NVP-RAF265] (top concentration 1000 nM) | 2.68 | 9.68 | 6.68 | 4.88 | 10.3 | 5.98 | 5.98 | 0.08 | 7.68 | 6.38 | 8.68 | 6.18 | 2.58 | 4.38 | 6.68 | 0.98 | 4.48 | 7.78 | 0.68 | 6.28 |
| CC1(C)CC[C@]2(NC(=O)C(C)(F)F)CC[C@]3(C)[C@H](C(=O)C=C4[C@@]5(C)C=C(C#N)C(=O)C(C)(C)[C@@H]5CC[C@]43C)[C@@H]2C1 [Omaveloxolone] (top concentration 10000 nM) | 10.9 | 4.78 | 3.08 | 0.78 | 4.88 | 0.48 | 3.38 | 3.58 | 1.68 | 1.58 | 4.88 | 4.58 | 1.88 | 0.68 | 6.28 | 0.88 | 4.88 | 8.38 | -0.52 | 1.48 |
| CC(C)c1cc(C(=O)N2Cc3ccc(CN4CCN(C)CC4)cc3C2)c(O)cc1O [Onalespib] (top concentration 2500 nM) | 6.52 | 2.82 | 1.62 | 4.62 | 3.32 | -2.38 | 7.22 | 4.62 | 5.42 | 6.02 | 7.42 | 1.82 | 2.22 | 1.32 | 6.52 | 1.32 | 3.92 | 3.92 | -6.48 | -3.28 |
| COC[C@H](NC(=O)c1cnc(C)s1)C(=O)N[C@@H](COC)C(=O)N[C@@H](Cc1ccccc1)C(=O)[C@@]1(C)CO1 [Oprozomib] (top concentration 2500 nM) | 0.3 | 0.2 | 0.8 | 6.9 | 8.4 | 1.2 | 2.2 | -0.5 | 4.6 | 2.8 | 4.7 | 1.9 | 2.1 | 5.7 | -1.1 | 2.8 | 11.3 | 14 | -8.7 | -1.6 |
| COc1ccccc1S(=O)(=O)Nc1ccc2c(c1)CN(C)C(=O)N2 [PFI-1] (top concentration 30000 nM) | 0.1 | 3.7 | 2.7 | 1.4 | 8.7 | 0.3 | 3.1 | 1 | 3.1 | 4.4 | 8.6 | -1 | 0.8 | 6.1 | 5.4 | 2.5 | 4.7 | 8.5 | -3.2 | -4.5 |
| NS(=O)(=O)OC[C@@H]1C[C@@H](n2ccc3c(N[C@H]4CCc5ccccc54)ncnc32)C[C@@H]1O [Pevonedistat] (top concentration 10000 nM) | 8.5 | 13.1 | 12.7 | 16.4 | 6 | 2.7 | 8.5 | 5.7 | 12.1 | 13.2 | 16.7 | 4.1 | 16.7 | 11.1 | 12.3 | 16.2 | 9.9 | 15.2 | -3.1 | 6.7 |
| CCCCc1nc2cc(/C=C/C(=O)NO)ccc2n1CCN(CC)CC [Pracinostat] (top concentration 10000 nM) | 13.2 | 7.68 | 5.58 | 4.68 | 3.58 | 0.18 | 13 | 6.88 | 9.78 | 6.18 | 6.28 | 0.98 | 5.08 | 5.68 | 14.6 | 5.08 | 5.28 | 5.98 | -7.72 | 5.78 |
| COc1cccc(OCCCN)c1-c1cc(Nc2cnc(C#N)cn2)n[nH]1 [Prexasertib] (top concentration 10000 nM) | 15.7 | 18.4 | 14.5 | 18.8 | 4.24 | -0.96 | 14.8 | 14.6 | 17.5 | 18.4 | 21 | 13.8 | 19 | 21.3 | 20.9 | 19.2 | 15.9 | 20.9 | -0.86 | 8.94 |
| Cc1cn(-c2cc(NC(=O)c3ccc(C)c(Nc4nccc(-c5cnccn5)n4)c3)cc(C(F)(F)F)c2)cn1 [Radotinib] (top concentration 10000 nM) | 1.8 | 5.7 | 3.7 | 0 | 0 | 1.8 | 0 | 6.4 | 0 | 0.6 | 0.4 | 0 | 0.7 | 5.1 | 9.4 | 3.3 | 0 | 36.2 | 1.3 | 22 |
| Cn1nccc1Nc1nccc(-c2ccn([C@H](CO)c3ccc(Cl)c(F)c3)c(=O)c2)n1 [Ravoxertinib] (top concentration 10000 nM) | 4.9 | 1.5 | 3.6 | 2 | 7.7 | -0.2 | 3.4 | -0.4 | 2.4 | 0.1 | 4 | -1.6 | 2.1 | 3.5 | 4.5 | 1.9 | 0.7 | 12.6 | -3.2 | 3.2 |
